Measured values published in US20130072523A1, “ANALOGUES FOR THE TREATMENT OR PREVENTION OF FLAVIVIRUS INFECTIONS” (VERTEX PHARMACEUTICALS INCORPORATED, priority 2009, published 2013).

System: HCV 1b genotype
Assay: Cell-based luciferase reporter HCV (Ib) RNA replication assay (Huh-ET replicon cells)
Conditions: Hepatitis C virus, 96 h; HCV 1b genotype replicon, 4 days incubation, luciferase readout
Text: Cell-Based Luciferase Reporter HCV (Ib) RNA Replication Assay Cell Culture
Replicon cell lines Huh-5.2 are derived from the Huh-7 hepatocarcinoma cell line are maintained in culture as generally described in Krieger, N; Lohmann, V; Bartenschlager, R. Enhancement of hepatitis C virus RNA replication by cell culture-adaptive mutations. J. Virol. 2001, 75, 4614-4624. The Huh-5.2 cells contain the highly cell culture-adapted replicon I389 Luc-ubi-neo/NS3-375.1 construct that carries, in addition to the neomycin gene, an integrated copy to the firefly luciferase gene (Krieger, N; Lohmann, V; Bartenschlager, R. Enhancement of hepatitis C virus RNA replication by cell culture-adaptive mutations. J. Virol. 2001, 75, 4614-4624). This cell line allows measurement of HCV RNA replication and translation by measuring luciferase activity. It has been previously shown that the luciferase activity tightly follows the replicon RNA level in these cells (Krieger, N; Lohmann, V; Bartenschlager, R. Enhancement of hepatitis C virus RNA replication by cell culture-adaptive mutations. J. Virol. 2001, 75, 4614-4624). The Huh-ET cell line has the same features as those mentioned for Huh-5.2 cell line, except that ET cells are more robust and contain an adaptative mutation in the HCV NS4B gene instead of NS5A. Both cell lines are maintained in cultures at a sub-confluent level (<85%) as the level of replicon RNA is highest in actively proliferating cells. The culture media used for cell passaging consist of DMEM (Gibco BRL Laboratories, Mississauga, ON, Canada) supplemented with 10% foetal bovine serum with 1% penicilin/streptomycin, 1% glutamine, 1% sodium pyruvate, 1% non-essential amino acids, and 180 μg/ml of G418 final concentration. Cells are incubated at 37° C., in an atmosphere of 5% CO2 and passaged twice a week to maintain sub-confluence.
Approximately 3000 viable Huh-ET cells (100 μl) are plated per well in a white opaque 96-well microtiter plate. The cell culture media used for the assay is the same as described above except that it contains no G418 and no phenol red. After an incubation period of 3-4 hours at 37° C. in a 5% CO2 incubator, compounds (100 μl) are added at various concentrations. Cells are then further incubated for 4 days at 37° C. in a 5% CO2 incubator. Thereafter, the culture media is removed and cells are lysed by the addition of 95 μL of the luciferase buffer (luciferin substrate in buffered detergent). Cell lysates are incubated at room temperature and protected from direct light for at least 10 minutes. Plates are read for luciferase counts using a luminometer (Wallac MicroBeta Trilux, Perkin Elmer™, MA, USA).
The 50% inhibitory concentrations (IC50s) for inhibitory effect are determined from dose response curves using eleven concentrations per compound in duplicate. Curves are fitted to data points using nonlinear regression analysis, and IC50s are interpolated from the resulting curve using GraphPad Prism software, version 2.0 (GraphPad Software Inc., San Diego, Calif., USA).
EC50 ranges are presented in micromolar as follows: μM+++<=0.005<++<=5.0<+.

Row | Structure (SMILES) | IC50 [nM]
1 | [2H]C([2H])([2H])C([2H])(C([2H])([2H])[2H])[C@@]([2H])(NC(=O)OC)C(=O)N1C[C@@H](C)C[C@H]1c1ncc(C#Cc2ccc(C#Cc3cnc([C@@H]4C[C@H](C)CN4C(=O)[C@@H](NC(=O)OC)C(C)C)[nH]3)cc2)[nH]1 [Compound 44] | ≤ 5
2 | COC(=O)N[C@H](C(=O)N1C[C@@H](C)C[C@H]1c1ncc(C#Cc2ccc(C#Cc3cnc([C@@H]4C[C@H](C)CN4C(=O)[C@@H](NC(=O)OC)C(C)C)[nH]3)c3c2OC(F)(F)O3)[nH]1)C(C)C [Compound 45] | ≤ 5
3 | COC(=O)N[C@H](C(=O)N[C@H](C(=O)N1C[C@@H](C)C[C@H]1c1ncc(C#Cc2ccc(C#Cc3cnc([C@@H]4C[C@H](C)CN4C(=O)[C@@H](NC(=O)OC)C(C)C)[nH]3)cc2)[nH]1)C(C)C)C(C)C [Compound 46] | ≤ 5
4 | COC(=O)N[C@H](C(=O)N1C[C@@H](C)C[C@H]1c1nc(C)c(-c2cc3sc(-c4[nH]c([C@@H]5C[C@H](C)CN5C(=O)[C@@H](NC(=O)OC)C(C)C)nc4C)cc3s2)[nH]1)C(C)C [Compound 47] | ≤ 5
5 | COC(=O)N[C@H](C(=O)N1C[C@@H](C)C[C@H]1c1nc(C(F)(F)F)c(C#Cc2ccc(C#Cc3[nH]c([C@@H]4C[C@H](C)CN4C(=O)[C@@H](NC(=O)OC)C(C)C)nc3C(F)(F)F)cc2)[nH]1)C(C)C [Compound 48] | ≤ 5
6 | COC(=O)N[C@H](C(=O)N1C[C@@H](C)C[C@H]1c1nc(-c2ccc3cc(-c4c[nH]c([C@@H]5C[C@H](C)CN5C(=O)[C@@H](NC(=O)OC)C(C)C)n4)ccc3c2)c[nH]1)C(C)C [Compound 49] | ≤ 5
7 | COC(=O)N[C@H](C(=O)N1C[C@@H](C)C[C@@H]1c1ncc(C#Cc2ccc(C#Cc3cnc([C@@H]4C[C@H](C)CN4C(=O)[C@@H](NC(=O)OC)C(C)C)[nH]3)cc2)[nH]1)C(C)C [Compound 52] | 5 to 5000
8 | COC(=O)N[C@H](C(=O)N1C[C@@H](C)C[C@H]1c1nc(C#CC#Cc2c[nH]c([C@@H]3C[C@H](C)CN3C(=O)[C@@H](NC(=O)OC)C(C)C)n2)c[nH]1)C(C)C [Compound 53] | ≤ 5
9 | COC(=O)N[C@H](C(=O)N1C[C@@H](C)C[C@H]1c1ncc(C#Cc2ccc(C#Cc3cnc([C@@H]4C[C@H](C)CN4C(=O)OC(C)(C)C)[nH]3)cc2)[nH]1)C(C)C [Compound 54] | ≤ 5
10 | COC(=O)N[C@H](C(=O)N1C[C@@H](C)C[C@H]1c1nc(C#Cc2ccc3nc(C#Cc4c[nH]c([C@@H]5C[C@H](C)CN5C(=O)[C@@H](NC(=O)OC)C(C)C)n4)ccc3c2)c[nH]1)C(C)C [Compound 55] | ≤ 5
11 | COC(=O)N[C@H](C(=O)N1C[C@@H](C)C[C@H]1c1ncc(C#Cc2ccc(C#Cc3cnc([C@@H]4C[C@H](C)CN4C(=O)[C@@H](NC(=O)OC)C(C)C)[nH]3)nc2)[nH]1)C(C)C [Compound 56] | ≤ 5
12 | COC(=O)N[C@H](C(=O)N1C[C@@H](C)C[C@H]1c1nc(C#Cc2ccc(C#Cc3c[nH]c([C@@H]4C[C@H](C)CN4C(=O)[C@@H](NC(=O)OC)C(C)C)n3)c(C(=O)OC)c2)c[nH]1)C(C)C [Compound 57] | ≤ 5
13 | COC(=O)N[C@H](C(=O)N1C[C@@H](C)C[C@H]1c1ncc(-c2ccc(-c3[nH]c([C@@H]4C[C@H](C)CN4C(=O)[C@@H](NC(=O)OC)C(C)C)nc3-c3cc4sccc4s3)cc2)[nH]1)C(C)C [Compound 58] | ≤ 5
14 | COC(=O)N[C@H](C(=O)N1C[C@@H](C)C[C@H]1c1nc(CO)c(C#Cc2ccc(C#Cc3[nH]c([C@@H]4C[C@H](C)CN4C(=O)[C@@H](NC(=O)OC)C(C)C)nc3CO)cc2)[nH]1)C(C)C [Compound 59] | 5 to 5000
15 | COC(=O)N[C@H](C(=O)N1C[C@@H](C)C[C@H]1c1nc(C#Cc2ccc(C#Cc3c[nH]c([C@@H]4C[C@H](C)CN4C(=O)[C@@H](NC(=O)OC)C(C)C)n3)s2)c[nH]1)C(C)C [Compound 60] | ≤ 5
16 | COC(=O)N[C@H](C(=O)N1C[C@@H](C)C[C@H]1c1nc(C#Cc2ccc3sc(C#Cc4c[nH]c([C@@H]5C[C@H](C)CN5C(=O)[C@@H](NC(=O)OC)C(C)C)n4)cc3c2)c[nH]1)C(C)C [Compound 61] | ≤ 5
17 | COC(=O)N[C@H](C(=O)N1C[C@@H](C)C[C@H]1c1nc(C#Cc2ccc(C#Cc3c[nH]c([C@@H]4C[C@H](C)CN4C(=O)[C@@H](NC(=O)OC)C(C)C)n3)c(C#N)c2)c[nH]1)C(C)C [Compound 62] | ≤ 5
18 | COC(=O)N[C@H](C(=O)N1C[C@@H](C)C[C@H]1c1nc(C#Cc2ccc(C#Cc3c[nH]c([C@@H]4C[C@H](C)CN4C(=O)[C@@H](NC(=O)OC)C(C)C)n3)c(Cl)c2)c[nH]1)C(C)C [Compound 63] | ≤ 5
19 | COC(=O)N[C@H](C(=O)N1C[C@@H](C)C[C@H]1c1ncc(C#Cc2ccc(C#Cc3cnc([C@@H]4C[C@H](CO)CN4C(=O)[C@@H](NC(=O)OC)C(C)C)[nH]3)cc2)[nH]1)C(C)C [Compound 64] | ≤ 5
20 | C[C@H]1C[C@@H](c2ncc(-c3ccc(-c4ccc(-c5cnc([C@@H]6C[C@H](C)CN6C(=O)OC(C)(C)C)[nH]5)s4)cc3)[nH]2)N(C(=O)OC(C)(C)C)C1 [Compound 65] | 5 to 5000
21 | COC(=O)N[C@H](C(=O)N1C[C@@H](C)C[C@H]1c1nc(C)c(C#Cc2cc3sc(C#Cc4[nH]c([C@@H]5C[C@H](C)CN5C(=O)[C@@H](NC(=O)OC)C(C)C)nc4C)cc3s2)[nH]1)C(C)C [Compound 66] | ≤ 5
22 | COC(=O)N[C@H](C(=O)N1C[C@@H](C)C[C@H]1c1nc(C#Cc2ccc3cc(C#Cc4c[nH]c([C@@H]5C[C@H](C)CN5C(=O)[C@@H](NC(=O)OC)C(C)C)n4)sc3c2)c[nH]1)C(C)C [Compound 67] | ≤ 5
23 | COC(=O)N[C@H](C(=O)N1C[C@@H](OC)C[C@H]1c1ncc(C#Cc2ccc(C#Cc3cnc([C@@H]4C[C@H](OC)CN4C(=O)[C@@H](NC(=O)OC)C(C)C)[nH]3)cc2)[nH]1)C(C)C [Compound 68] | ≤ 5
24 | COC(=O)N[C@H](C(=O)N1C[C@@H](C)C[C@H]1c1ncc(-c2ccc(-c3cc4sc(-c5cnc([C@@H]6C[C@H](C)CN6C(=O)[C@@H](NC(=O)OC)C(C)C)[nH]5)cc4s3)cc2)[nH]1)C(C)C [Compound 69] | ≤ 5
25 | COC(=O)N[C@H](C(=O)N1CCC[C@H]1c1nc(-c2cc3sc(-c4c[nH]c([C@@H]5CCCN5C(=O)[C@@H](NC(=O)OC)C(C)C)n4)cc3s2)c[nH]1)C(C)C [Example 25, Methyl N-[(1S)-1-[(2S)-2-[4-[2-[2-[(2S)-1-[(2S)-2-(methoxycarbonylamino)-3-methyl-butanoyl]pyrrolidin-2-yl]-1H-imidazol-4-yl]thieno[3,2-b]thiophen-5-yl]-1H-imidazol-2-yl]pyrrolidine-1-carbonyl]-2-methyl-propyl]carbamate] | ≤ 5
26 | COC(=O)N[C@H](C(=O)N1CC(C)(C)C[C@H]1c1nc(C)c(C#Cc2ccc(C#Cc3[nH]c([C@@H]4CC(C)(C)CN4C(=O)[C@@H](NC(=O)OC)C(C)C)nc3C)cc2)[nH]1)C(C)C [Example 30] | ≤ 5
27 | COC(=O)N[C@H](C(=O)N1[C@@H](C)CC[C@H]1c1ncc(C#Cc2ccc(C#Cc3cnc([C@@H]4CC[C@H](C)N4C(=O)[C@@H](NC(=O)OC)C(C)C)[nH]3)cc2)[nH]1)C(C)C [Example 42] | ≤ 5
28 | COC(=O)N[C@H](C(=O)N1CC(C)(C)C[C@H]1c1ncc(C#Cc2ccc(C#Cc3cnc([C@@H]4CC(C)(C)CN4C(=O)[C@@H](NC(=O)OC)C(C)C)[nH]3)cc2)[nH]1)C(C)C [Example 43] | ≤ 5
